# Earlier results, collected in patent US20150045422A1 (priority 2005, published 2015).
# Experiments:
# [1] = tested on: HL (lymphocyte)
# [2] = tested on: Herpes Simplex Virus Type 2 (HSV2)
# [3] = tested on: HeLa (uterine)
# [4] = tested on: HEK (kidney)
# [5] = tested on: HEp2 (epidermoid)
# [6] = tested on: HEp-2 cells
Compound,PSR Potency in Human Cells (IC50) HL [1] [µg/mL],PSR Potency in Human Cells (IC50) HSV2 [2] [µg/mL],PSR Potency in Human Cells (IC50) HeLa [3] [µg/mL],PSR Potency in Human Cells (IC50) HEK [4] [µg/mL],PSR Potency in Human Cells (IC50) HEp2 [5] [µg/mL],concentrations that did not decrease cell viability [6]
"CC(=O)O[C@@H]1[C@@H](O)[C@H]2O[C@@H]3C=C(C)C(=O)[C@@H](O)[C@]3(CO)[C@]1(C)[C@]21CO1 [FusX, Fusarenon-X]",0.3,0.026,0.1,1,–,–
"CC1=C[C@H]2O[C@@H]3[C@H](O)C[C@](C)([C@@]2(CO)[C@H](O)C1=O)[C@]31CO1 [DON, Deoxynivalenol]",0.5,0.094,1,3,0.25,–
"CC1=C[C@H]2O[C@@H]3[C@H](O)[C@@H](O)[C@](C)([C@@]2(CO)[C@H](O)C1=O)[C@]31CO1 [NIV, Nivalenol]",0.3,0.05,0.3,1,0.225,–
Crotocin,2,–,0.5,0.6,0.25,–
"CC(=O)OC[C@]12C[C@H](O)C(C)=C[C@H]1O[C@@H]1[C@H](O)[C@@H](OC(C)=O)[C@@]2(C)[C@]12CO2 [NEOS, neosolaniol]",0.05,0.052,0.1,0.06,–,below 200 ng/ml
